ChEMBL document CHEMBL1782032, “New aromatic substituted pyrazoles as selective inhibitors of human adipocyte fatty acid-binding protein” (Bioorg Med Chem Lett, 2011)
The source made the active and inactive calls. The calls are words filed in the database; no cut-off is given here.

Legend:
[1] = molecular target: T1, Fatty acid-binding protein, heart (Homo sapiens, UniProt P05413); test: Displacement of fluorescent 1-anilinonapthalene 8-sulfonic acid from human h-FABP by fluorescence spectrophotometry
Target sequence in this assay (P05413 whole entry): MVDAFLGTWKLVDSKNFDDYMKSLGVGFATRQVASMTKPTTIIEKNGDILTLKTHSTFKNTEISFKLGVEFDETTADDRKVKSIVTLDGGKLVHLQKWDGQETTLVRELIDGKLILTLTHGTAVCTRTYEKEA

[2] = molecular target: T2, Fatty acid-binding protein, adipocyte (Homo sapiens, UniProt P15090); test: Displacement of fluorescent 1-anilinonapthalene 8-sulfonic acid from human a-FABP by fluorescence spectrophotometry
Target sequence in this assay (P15090 whole entry): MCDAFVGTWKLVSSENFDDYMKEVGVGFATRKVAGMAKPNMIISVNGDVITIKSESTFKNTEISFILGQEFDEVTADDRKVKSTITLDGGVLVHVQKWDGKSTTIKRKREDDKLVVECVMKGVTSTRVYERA

RAW264.7 [3] = test: Antiinflammatory activity in […] RAW264.7 cells assessed as inhibition of lipopolysaccharide induced MCP-1/CCL2 mRNA expression by PCR; assay type: functional, cell-based
RAW264.7 [4] = test: Antiinflammatory activity in […] RAW264.7 cells assessed as inhibition of lipopolysaccharide induced TNF-alpha mRNA expression by PCR; assay type: functional, cell-based
[5] = molecular target: T2, Fatty acid-binding protein, adipocyte; test: Displacement of fluorescent 1-anilinonapthalene 8-sulfonic acid from human a-FABP at 10 uM by fluorescence spectrophotometry
Target sequence in this assay (P15090 2-132 limits assumed): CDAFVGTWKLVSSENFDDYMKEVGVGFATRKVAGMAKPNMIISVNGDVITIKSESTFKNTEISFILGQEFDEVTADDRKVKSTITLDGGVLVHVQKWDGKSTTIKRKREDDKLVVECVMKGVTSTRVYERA

[6] = molecular target: T1, Fatty acid-binding protein, heart; test: Displacement of fluorescent 1-anilinonapthalene 8-sulfonic acid from human h-FABP at 10 uM by fluorescence spectrophotometry
Target sequence in this assay (P05413 2-133 limits assumed): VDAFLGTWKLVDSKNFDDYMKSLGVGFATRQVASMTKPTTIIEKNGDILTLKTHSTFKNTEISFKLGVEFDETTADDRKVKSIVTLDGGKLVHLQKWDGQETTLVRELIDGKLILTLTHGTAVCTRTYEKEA

Question: With O=C(O)COc1cccc(-c2ccccc2-c2cc(-c3ccccc3)n(-c3ccc(Cl)cc3)n2)c1 as the compound, how does the Ki [1] read?
Answer: Its Ki is 17 µM.

Question: And the Ki [2]?
Answer: Its Ki is 0.013 µM.

Question: Which Ki [1] does the source give for CC(C)(Oc1cccc(-c2ccccc2-c2cc(-c3cccs3)n(-c3ccc(Cl)cc3)n2)c1)C(=O)O here?
Answer: Its Ki is over 50 µM.

Question: And the inhibition (RAW264.7 [3])?
Answer: The inhibition was “Dose-dependent effect”.

Question: And the Ki [2]?
Answer: The Ki was under 0.001 µM.

Question: And the inhibition (RAW264.7 [4])?
Answer: Its inhibition is “Dose-dependent effect”.

Question: O=C(O)COc1cccc(-c2ccccc2-c2cc(-c3cccs3)n(-c3ccc(Cl)cc3)n2)c1 was tested. Which Ki [1] did it give?
Answer: The Ki was 4.24 µM.

Question: What about the Ki [2] of the same compound?
Answer: The Ki was 0.005 µM.

Question: Which Ki [1] does the source give for O=C(O)COc1cccc(-c2ccccc2-c2cc(-c3ccco3)n(-c3ccc(Cl)cc3)n2)c1 here?
Answer: The Ki was 4.13 µM.

Question: And the Ki [2]?
Answer: The Ki was 0.007 µM.

Question: CCC(Oc1cccc(-c2ccccc2-c2cc(-c3cccs3)n(-c3ccc(Cl)cc3)n2)c1)C(=O)O (configuration not stated) was tested. Which Ki [1] did it give?
Answer: Its Ki is 3.72 µM.

Question: What about the Ki [2] of the same compound?
Answer: Its Ki is 0.006 µM.

Question: Which results are given for CCc1c(-c2ccccc2)c(-c2ccccc2)nn1-c1ccccc1-c1cccc(OCC(=O)O)c1?
Answer: inhibition (RAW264.7 [3]): Dose-dependent effect; inhibition (RAW264.7 [4]): Dose-dependent effect

Question: CCOC(=O)COc1cccc(-c2ccccc2-n2nc(-c3ccccc3)c(-c3ccccc3)c2CC)c1 was tested. Which Activity [5] did it give?
Answer: The Activity was “inactive”.

Question: What about the Activity [6] of the same compound?
Answer: Its Activity is “inactive”.

Question: How did the Ki [1] turn out when O=C(O)COc1cccc(-c2ccccc2-c2cc(-c3ccccc3)n(-c3ccccc3)n2)c1 was run?
Answer: The Ki was 5.24 µM.

Question: What about the Ki [2] of the same compound?
Answer: Its Ki is 0.032 µM.

Question: How did the Ki [1] turn out when CC(Oc1cccc(-c2ccccc2-c2cc(-c3cccs3)n(-c3ccc(Cl)cc3)n2)c1)C(=O)O (configuration not stated) was run?
Answer: The Ki was 2.27 µM.

Question: What about the inhibition (RAW264.7 [3]) of the same compound?
Answer: The inhibition was “Dose-dependent effect”.

Question: And the Ki [2]?
Answer: Its Ki is under 0.001 µM.

Question: What about the inhibition (RAW264.7 [4]) of the same compound?
Answer: The inhibition was “Dose-dependent effect”.
